Assay results taken from the NIST ThermoML archive (doi:10.1016/j.tca.2015.08.013).

Settings: for vapor or sublimation pressure / mass density / kinematic viscosity / speed of sound: Liquid; for vapor or sublimation pressure: Ebulliometric method (Recirculating still); for surface tension liquid-gas: Drop volume; for mass density: Vibrating tube method; for kinematic viscosity / speed of sound: 101.33 kPa; for kinematic viscosity: Capillary tube (Ostwald / Ubbelohde) method; for speed of sound: Sing-around technique in a fixed-path interferometer

Cc1ccco1 [2-methylfuran]
Settings | kinematic viscosity [m2/s] | speed of sound [m/s] | surface tension liquid-gas [mN/m] | vapor or sublimation pressure [kPa]
308.17 K | – | – | – | 35.04
310.12 K | – | – | – | 37.92
310.65 K | 3.92e-07 | 1106.8 | 22.71 | –
312.06 K | – | – | – | 41.03
313.15 K | 3.83e-07 | 1095.6 | 22.37 | –
314.02 K | – | – | – | 44.3
315.65 K | 3.74e-07 | 1084.4 | 22.08 | –
316.08 K | – | – | – | 47.94
317.22 K | – | – | – | 50.08
318.15 K | 3.66e-07 | 1073.3 | 21.69 | –
319.29 K | – | – | – | 54.16
320.65 K | 3.58e-07 | 1062.1 | 21.35 | –
321.15 K | – | – | – | 58.19
323.05 K | – | – | – | 62.23
323.15 K | 3.5e-07 | 1051 | 21 | –
325.57 K | – | – | – | 68.18
325.65 K | 3.42e-07 | 1039.9 | 20.7 | –
327.23 K | – | – | – | 72.31
328.15 K | 3.36e-07 | 1028.8 | 20.46 | –
329.07 K | – | – | – | 77.17
330.65 K | 3.28e-07 | 1017.7 | 20.08 | –
331.13 K | – | – | – | 82.86
333.15 K | 3.2e-07 | 1006.7 | 19.74 | –
333.27 K | – | – | – | 89.15
334.25 K | – | – | – | 92.22
335.65 K | 3.13e-07 | 995.68 | 19.41 | –
336.39 K | – | – | – | 99.03
337.09 K | – | – | – | 101.33
338.15 K | 3.07e-07 | 984.65 | 19.09 | –

Settings | mass density [kg/m3]
310.65 K, 99 kPa | 894.953
313.15 K, 99 kPa | 891.871
313.15 K, 100 kPa | 891.87
313.15 K, 2500 kPa | 894.72
313.15 K, 5000 kPa | 897.62
313.15 K, 7500 kPa | 900.57
313.15 K, 10000 kPa | 903.14
313.15 K, 20000 kPa | 913.34
313.15 K, 30000 kPa | 922.45
313.15 K, 40000 kPa | 930.83
313.15 K, 50000 kPa | 938.5
313.15 K, 60000 kPa | 945.71
315.65 K, 99 kPa | 888.779
318.15 K, 99 kPa | 885.676
318.15 K, 100 kPa | 885.68
318.15 K, 2500 kPa | 888.8
318.15 K, 5000 kPa | 891.79
318.15 K, 7500 kPa | 894.77
318.15 K, 10000 kPa | 897.58
318.15 K, 20000 kPa | 907.94
318.15 K, 30000 kPa | 917.27
318.15 K, 40000 kPa | 925.75
318.15 K, 50000 kPa | 933.61
318.15 K, 60000 kPa | 941.15
320.65 K, 99 kPa | 882.558
323.15 K, 99 kPa | 879.425
323.15 K, 100 kPa | 879.43
323.15 K, 2500 kPa | 882.68
323.15 K, 5000 kPa | 885.8
323.15 K, 7500 kPa | 888.76
323.15 K, 10000 kPa | 891.8
323.15 K, 20000 kPa | 902.39
323.15 K, 30000 kPa | 911.96
323.15 K, 40000 kPa | 920.89
323.15 K, 50000 kPa | 929.01
323.15 K, 60000 kPa | 936.53
325.65 K, 99 kPa | 876.278
328.15 K, 99 kPa | 873.118
328.15 K, 100 kPa | 873.12
328.15 K, 2500 kPa | 876.29
328.15 K, 5000 kPa | 879.75
328.15 K, 7500 kPa | 882.71
328.15 K, 10000 kPa | 885.92
328.15 K, 20000 kPa | 896.99
328.15 K, 30000 kPa | 906.92
328.15 K, 40000 kPa | 915.88
328.15 K, 50000 kPa | 924.13
328.15 K, 60000 kPa | 931.92
330.65 K, 99 kPa | 869.944
333.15 K, 99 kPa | 866.753
333.15 K, 100 kPa | 866.75
333.15 K, 2500 kPa | 870.11
333.15 K, 5000 kPa | 873.62
333.15 K, 7500 kPa | 876.95
333.15 K, 10000 kPa | 880.01
333.15 K, 20000 kPa | 891.39
333.15 K, 30000 kPa | 901.64
333.15 K, 40000 kPa | 910.95
333.15 K, 50000 kPa | 919.48
333.15 K, 60000 kPa | 927.42
335.65 K, 99 kPa | 863.547
338.15 K, 99 kPa | 860.327
338.15 K, 100 kPa | 860.33
338.15 K, 2500 kPa | 863.95
338.15 K, 5000 kPa | 867.36
338.15 K, 7500 kPa | 870.91
338.15 K, 10000 kPa | 874.16
338.15 K, 20000 kPa | 886.03
338.15 K, 30000 kPa | 896.44
338.15 K, 40000 kPa | 905.99
338.15 K, 50000 kPa | 914.74
338.15 K, 60000 kPa | 922.79
